Target: T1, human KSP motor domain (KSP(367H)) (Homo sapiens, UniProt P52732)
T1 construct: were used to amplify the motor domain and the neck linker region; made in house; host or cells: E. coli BL21 (DE3), pRSETa
T1 sequence (P52732 18-359 limits assumed): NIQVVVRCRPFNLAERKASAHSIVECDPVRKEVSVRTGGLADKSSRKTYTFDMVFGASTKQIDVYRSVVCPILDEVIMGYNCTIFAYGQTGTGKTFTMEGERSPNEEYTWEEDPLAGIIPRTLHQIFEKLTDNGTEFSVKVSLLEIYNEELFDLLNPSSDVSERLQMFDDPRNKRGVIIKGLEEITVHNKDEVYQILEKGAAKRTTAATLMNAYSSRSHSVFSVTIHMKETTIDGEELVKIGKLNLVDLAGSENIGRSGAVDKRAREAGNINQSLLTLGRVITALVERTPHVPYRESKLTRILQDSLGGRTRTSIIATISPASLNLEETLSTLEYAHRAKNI
Assay: Kinesin ATPase In Vitro Assay
Type: biochemical
Details: kinesin motor domain with microtubules, 1 mM ATP, 23° C.
Excerpt: I. Kinesin ATPase In Vitro Assay
Cloning and Expression of Human Poly-Histidine Tagged KSP Motor Domain (KSP(367H))
Plasmids for the expression of the human KSP motor domain construct were cloned by PCR using a pBluescript full length human KSP construct (Blangy et al., Cell, vol. 83, pp 1159-1169, 1995) as a template. The N-terminal primer 5′-[…] (SEQ. ID. NO.: 1) and the C-terminal primer 5′-[…] […] (SEQ. ID. NO.: 2) were used to amplify the motor domain and the neck linker region. The PCR products were digested with AseI and XhoI, ligated into the NdeI/XhoI digestion product of pRSETa (Invitrogen) and transformed into E. coli BL21 (DE3).
Cells were grown at 37° C. to an OD600 of 0.5. […]
The kinesin motor domain is incubated with microtubules, 1 mM ATP (1:1 MgCl2: Na-ATP), and compound at 23° C. in buffer containing 80 mM K-HEPES (pH 7.0), 1 mM EGTA, 1 mM DTT, 1 mM MgCl2, and 50 mM KCl. […] Free phosphate from the ATP hydrolysis reaction is measured via a quinaldine red/ammonium molybdate assay by adding a […] of quench C (e.g., to a mixture of 40 μl reaction volume+40 μl stop buffer is then added 120 μl quench C). […] Quench C is a 2:1 ratio of quench A:quench B The reaction is incubated for 5-10 minutes at 23° C., and the absorbance of the phospho-molybdate complex is measured at 540 nm.

IC50 [µM]	SMILES
≤ 50	CC(=O)N1N=C(c2cc(F)ccc2F)C[C@@]1(CC[C@@H](N)CF)c1ccccc1 [Compound 2-7, [(1R)-3-[(5S)-1-Acetyl-3-(2,5-difluorophenyl)-5-phenyl-4,5′-dihydro-1H-pyrazol-5-yl]-1-(fluoromethyl)propyl]amine]
≤ 50	CC(=O)N1N=C(c2cc(F)ccc2F)C[C@@]1(CC[C@H](N)CF)c1ccccc1 [Compound 2-8, [(1S)-3-[(5S)-1-Acetyl-3-(2,5-difluorophenyl)-5-phenyl-4,5-dihydro-1H-pyrazol-5-yl]-1-(fluoromethyl)propyl]amine]

From US7629373B2, “Mitotic kinesin inhibitors” (Merck & Co. Inc., priority 2005, dated 2009)
